The assay deals with PC-12. As to the kind of experiment: Neuritogenic activity of compound in PC12 rat pheochromocytoma cells was evaluated at dose of 20 uM; Positive neurite initiation after 16 hour incubation. Format: functional.

For the compound `C/C=C\NC(=O)C1NC(=O)[C@H](CC(N)=O)NC(=O)[C@@H](NC(=O)C(=O)[C@@H](C)CC)Cc2ccc(O)c(c2)-c2cccc3c2NC(=O)[C@@]3(O)[C@@H]1O` (stereo partly specified), the Activity turned out to be 60%.

Values taken from ChEMBL document CHEMBL1147424, “TMC-95A, a reversible proteasome inhibitor, induces neurite outgrowth in PC12 cells” (2004).
